Data set [1] concerns Scirpus juncoides Roxb. var. ohwianus. T. Koyama. Kind of data set: Herbicidal effects in paddy field soil treatment (Test Example 1). It is filed as in vivo. Set-up: scale not given here. Particulars: for Herbicidal effects index, Scirpus juncoides Roxb. var. ohwianus. T. Koyama: paddy field soil treatment, 1000 g of the active ingredient per hectare, wettable powder added dropwise on water surface, 21st day after treatment. In outline: (§1)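 Application rate 1000 g a.i./ha, delivered as water-diluted wettable powder onto flooded (3 cm) paddy soil one day after sowing. Plants kept in a greenhouse and evaluated for herbicidal effect on day 21 post-treatment.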

Data set [2] relates to Echinochloa oryzicola Vasing. The data set is described as above. It is filed as in vivo. Set-up: scale not given here. Particulars: for Herbicidal effects index, Echinochloa oryzicola Vasing: paddy field soil treatment, 1000 g of the active ingredient per hectare, wettable powder added dropwise on water surface, 21st day after treatment. In outline:
as §1

For data set [3], the system named is Monochoria vaginalis (Burm. f.) Presl var. plantaginea (Roxb.) Solms-Laub. The description is as above. It is filed as in vivo. As to conditions: for Herbicidal effects index, Monochoria vaginalis (Burm. f.) Presl var. plantaginea (Roxb.) Solms-Laub.: paddy field soil treatment, 1000 g of the active ingredient per hectare, wettable powder added dropwise on water surface, 21st day after treatment. Set-up: scale not given here. In outline: as §1

Data set [4] relates to Amaranthus viridis L. As to the kind of experiment: Herbicidal effects in upland field soil treatment (Test Example 2). It is filed as in vivo. Set-up: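 grade 0 to 5 of growth suppression where 5 is 90% or more and 0 below 10%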. As to conditions: 1000 g active ingredient per hectare, 21st day after treatment, criteria of Table 138. In outline:
(§2)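 Herbicidal effect graded 21 days after treatment, plants kept in greenhouse. Treatment was a soil-surface spray of wettable powder in water, 1000 g a.i./ha in 1000 L/ha, applied after sowing and covering seeds.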

Data set [5] relates to Abutilon theophrasti medicus. Described as above. Format: in vivo. Set-up: scale not given here. As to conditions: 1000 g active ingredient per hectare, 21st day after treatment, criteria of Table 138. In outline: as §2
The test system of data set [6] is Echinochloa crus-galli (L.) P. Beauv. var. crus-galli. Kind of data set: Herbicidal effects in upland field foliar treatment (Test Example 3). It is filed as in vivo. Set-up: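 grade 0 to 5 of growth suppression where 5 is 90% or more and 0 below 10%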. Particulars: criteria of Table 138; for herbicidal effects on Echinochloa crus-galli (L.) P. Beauv. var. crus-galli: 1000 g of the active ingredient per hectare, 14th day after the treatment, wettable powder. In outline:
(§3)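 Foliar spray of diluted wettable powder, 1000 g a.i./ha in 1000 L/ha, onto two-week-old greenhouse-grown seedlings in upland field soil. Plants kept in the greenhouse, with effect rated on a criteria scale at day 14.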

The test system of data set [7] is Amaranthus viridis L. The data set is described as above. Set-up: scale not given here. It is filed as in vivo. As to conditions: criteria of Table 138; for herbicidal effects on Amaranthus viridis L.: 1000 g of the active ingredient per hectare, 14th day after the treatment, wettable powder. In outline: as §3
The subject of data set [8] is Abutilon theophrasti medicus. The data set is described as above. Format: in vivo. Set-up: scale not given here. Particulars: criteria of Table 138; for herbicidal effects on Abutilon theophrasti medicus: 1000 g of the active ingredient per hectare, 14th day after the treatment, wettable powder. In outline:
as §3

Where [9] appears, read: 1000 g active ingredient per hectare, 14th day after treatment.
Setting [10] is: paddy field soil treatment (Test Example 1), criteria of Table 138.

The values below come from patent publication US8389523B2, “Substituted quinoxaline and an agrochemical composition thereof” (Kumiai Chemical Industry Co., Ltd., priority 2007, dated 2013).

The structures appear in SMILES notation.

On to `Cn1c(=O)c(C(=O)C2=C(O)CCCC2=O)nc2ccccc21` [I-2, 3-(2-hydroxy-6-oxo-1-cyclohexenecarbonyl)-1-methylquinoxalin-2(1H)-one], for which the melting point (as a rule, the temperature, or range, at which the solid turns liquid) is 191 to 192 °C. In [1], the “Herbicidal effects index, Scirpus juncoides Roxb. var. ohwianus. T. Koyama” value is reported as 5. Moreover, the “Herbicidal effects index, Echinochloa oryzicola Vasing” value in data set [2] came out at 4. In addition, in data set [3], the “Herbicidal effects index, Monochoria vaginalis (Burm. f.) Presl var. plantaginea (Roxb.) Solms-Laub.” value (“Herbicidal effects index … (Roxb.) Solms-Laub.” for short) is reported as 5. Further, the “herbicidal effect (index) on Amaranthus viridis L.” value in the data set with Amaranthus viridis L. [4] came out at 5. Also, the “herbicidal effect (index) on Abutilon theophrasti medicus” value in data set [5] is 5. For the same compound, in data set [6] (setting [9]), the “herbicidal effect (index) on Echinochloa crus-galli (L.) P. Beauv. var. crus-galli” value was 4. In addition, in the data set on Amaranthus viridis L. [7] (setting [9]), the “herbicidal effect (index) on Amaranthus viridis L.” value came to 5. Besides, in data set [8] (setting [9]), the “herbicidal effect (index) on Abutilon theophrasti medicus” value amounted to 5.
For the compound `O=C1CCCC(O)=C1C(=O)c1nc2ccccc2n(-c2ccc([N+](=O)[O-])cc2)c1=O` [II-131], the “Herbicidal effects index, Scirpus juncoides Roxb. var. ohwianus. T. Koyama” value in data set [1] was 5. Also, in [2], the “Herbicidal effects index, Echinochloa oryzicola Vasing” value was 5. Moreover, the “Herbicidal effects index … (Roxb.) Solms-Laub.” value in data set [3] came to 5. In the data set with Amaranthus viridis L. [4], the “herbicidal effect (index) on Amaranthus viridis L.” value is on record as 5. Further, in data set [5], the “herbicidal effect (index) on Abutilon theophrasti medicus” value is 5. The “herbicidal effects on Echinochloa crus-galli (L.) P. Beauv. var. crus-galli” value in data set [6] was determined as 5. Also, the “herbicidal effects on Amaranthus viridis L.” value in the data set on Amaranthus viridis L. [7] is 5. The “herbicidal effects on Abutilon theophrasti medicus” value in data set [8] came to 5.
Take `O=C1CCCC(O)=C1C(=O)c1nc2cccnc2n(-c2cccc(OC(F)F)c2)c1=O` [IV-90]: the “herbicidal effect (index) on Scirpus juncoides Roxb. var. ohwianus. T. Koyama” value in data set [1] (setting [10]) is reported as 5. The “herbicidal effect (index) on Echinochloa oryzicola Vasing” value in data set [2] (setting [10]) was 5. Further, the “herbicidal effect (index) on Monochoria vaginalis (Burm. f.) Presl var. plantaginea (Roxb.) Solms-Laub.” value in [3] (setting [10]) was 5. For the same compound, in the data set with Amaranthus viridis L. [4], the “herbicidal effect (index) on Amaranthus viridis L.” value is listed as 5. Moreover, the “herbicidal effect (index) on Abutilon theophrasti medicus” value in [5] is on record as 5. Moreover, in [6], the “herbicidal effects on Echinochloa crus-galli (L.) P. Beauv. var. crus-galli” value was 5. In the data set on Amaranthus viridis L. [7], the “herbicidal effects on Amaranthus viridis L.” value came out at 5. The “herbicidal effects on Abutilon theophrasti medicus” value in [8] amounted to 5.
For the compound `O=C1CCCC(O)=C1C(=O)c1nc2cccnc2n(Cc2ccccc2Cl)c1=O` [III-111], in data set [1], the “Herbicidal effects index, Scirpus juncoides Roxb. var. ohwianus. T. Koyama” value is 5. The “Herbicidal effects index, Echinochloa oryzicola Vasing” value in [2] is recorded as 5. Moreover, the “Herbicidal effects index … (Roxb.) Solms-Laub.” value in [3] came out at 5. The “herbicidal effect (index) on Amaranthus viridis L.” value in the data set with Amaranthus viridis L. [4] is listed as 5. Further, in data set [5], the “herbicidal effect (index) on Abutilon theophrasti medicus” value turned out to be 5. In addition, the “herbicidal effects on Echinochloa crus-galli (L.) P. Beauv. var. crus-galli” value in [6] came to 5. Besides, the “herbicidal effects on Amaranthus viridis L.” value with Amaranthus viridis L. [7] was found to be 5. Besides, in [8], the “herbicidal effects on Abutilon theophrasti medicus” value amounted to 5.
Regarding `CC(C)c1ccc(-n2c(=O)c(C(=O)C3=C(O)CCCC3=O)nc3cccnc32)cc1` [IV-30], the “Herbicidal effects index, Scirpus juncoides Roxb. var. ohwianus. T. Koyama” value in data set [1] is on record as 5. Also, the “Herbicidal effects index, Echinochloa oryzicola Vasing” value in data set [2] was found to be 5. In data set [3], the “Herbicidal effects index … (Roxb.) Solms-Laub.” value was determined as 5. Moreover, the “herbicidal effect (index) on Amaranthus viridis L.” value in the data set with Amaranthus viridis L. [4] is recorded as 5. Further, the “herbicidal effect (index) on Abutilon theophrasti medicus” value in data set [5] was 4. The “herbicidal effects on Echinochloa crus-galli (L.) P. Beauv. var. crus-galli” value in [6] was 5. The “herbicidal effects on Amaranthus viridis L.” value in the data set on Amaranthus viridis L. [7] is recorded as 5. Moreover, in [8], the “herbicidal effects on Abutilon theophrasti medicus” value amounted to 4.
For `O=C1CCCC(O)=C1C(=O)c1nc2ccc(F)cc2n(-c2ccccc2)c1=O` [II-241], the “Herbicidal effects index, Scirpus juncoides Roxb. var. ohwianus. T. Koyama” value in [1] turned out to be 5. Moreover, the “Herbicidal effects index, Echinochloa oryzicola Vasing” value in data set [2] is given as 5. Also, the “Herbicidal effects index … (Roxb.) Solms-Laub.” value in [3] was 5. Further, the “herbicidal effect (index) on Amaranthus viridis L.” value in the data set with Amaranthus viridis L. [4] turned out to be 5. In addition, in [5], the “herbicidal effect (index) on Abutilon theophrasti medicus” value was 5. The “herbicidal effects on Echinochloa crus-galli (L.) P. Beauv. var. crus-galli” value in [6] worked out at 5. Further, the “herbicidal effects on Amaranthus viridis L.” value with Amaranthus viridis L. [7] turned out to be 5. For the same compound, the “herbicidal effects on Abutilon theophrasti medicus” value in data set [8] is listed as 5.
